Data taken from patent publication US11324768B2, “Applications of triacetyl-3-hydroxyl phenyl adenosine in treating vascular inflammations or improving vascular endothelium functions” (priority 2016, dated 2022).

Key:
Format in all cases: in vivo
C57BL/6J mice = assay: TNF-α-induced acute vascular inflammation in mice (leukocyte movement rate and leukocyte-endothelial cell adhesion in mesenteric venules); details: 7 days, 4 h after TNF-α
Method: 60 C57BL/6J mice were randomly divided into 6 groups according to body weight: normal control group, model control group, IMM-H007 group, positive control AMPK agonist group metformin, A769662 group, and atorvastatin group, respectively, and were intragastrically administered with physiological saline, IMM-H007 (100 mg/kg), metformin (260 mg/kg), and atorvastatin (lipitor, 10 mg/kg), respectively, and injected intraperitoneally with A769662 (30 mg/kg, which is difficult to absorb by oral administration) for 7 consecutive days. On the 8th day, except that the blank control group was intraperitoneally injected with normal saline, other groups were all intraperitoneally injected with TNF-α (0.3 μg/dose) to induce acute inflammations in the blood vessels. Four hours after the injection of TNF-α, the optic nerve vascular plexus was intravenously injected with 0.05% Rhodamine-6G, and leukocytes were fluorescently labeled with 100 μl. The mice were anesthetized with pentobarbital sodium. The right side of the mice was fixed on a observation table. A small mouth was cut along the abdominal cavity. The mesenteric vascular bed was gently pulled out. The small intestine of the mice was fixed in a observation window. The microscope is turned on to find a clear third-order mesenteric vein under a low power microscope, and then adjusted to 20-fold magnification for observation, after adjusting the brightness and focal length to the optimum, the white light was turned off, the fluorescence was turned on, and a 1 min leukocyte movement video was collected from each vessel segment using the ToumView software of the Dynamic Visual Microvascular Research System (Gene&I-SMC1). The leukocyte movement rate and leukocyte-endothelial cell adhesion number reflect intravascular inflammations and are early signs of endothelial dysfunction.
The leukocyte movement rate was analyzed with image pro 6.0. At least three observation points were selected for each observation field, and at least 9 observation sites were finally counted for each mouse. The mean value was calculated to obtain the average leukocyte movement rate.

ApoE−/− mice [1] = assay: Intravascular inflammatory response in high-fat-fed ApoE−/− mice (chronic inflammation model); details: 8 weeks, high-fat diet
Method: After 1 week of adaptive feeding, the animals were randomly divided into 4 groups according to body weight: model control group, A769662 (30 mg/kg, ip), metformin (260 mg/kg), IMM-H007 (100 mg/kg) administration groups, 7 in each group, and were given a high-fat diet (78.6% basal diet, 10% lard, 1.00%/cholesterol, 10% egg yolk powder, and 0.4% bile salt), and simultaneously administered intragastrically at a dose of 0.1 ml/10 g body weight, and were continuously administered and fed for 8 weeks. The mice were anesthetized with pentobarbital sodium (60 mg/kg body weight). The right side of the mice was fixed on a observation table. A small mouth was cut along the abdominal cavity. The mesenteric vascular bed was gently pulled out. The small intestine of the mice was fixed in an observation window, the microscope is turned on to find a clear third-order mesenteric vein under a low power microscope, and then adjusted to 20-fold magnification for observation, after adjusting the brightness and focal length to the optimum, the white light was turned off, the fluorescence was turned on, and the leukocyte movement in the blood vessel could be observed. A 1 min leukocyte movement video was collected from each vessel segment using the ToumView software of the Dynamic Visual Microvascular Research System (Gene&I-SMC1). Leukocyte movement rate and number of leukocyte-endothelial cells adhesion were analyzed using image pro 6.0.
(1) Leukocyte Movement Rate and (2) Number of Leukocyte-Endothelial Cell Adhesion

VCAM-1 = assay: Serum inflammatory factor VCAM-1 in ApoE−/− mice (ELISA)
TNF-α = assay: Serum inflammatory factor TNF-α in ApoE−/− mice (ELISA); set-up: unit not given here
Method: After 1 week of adaptive feeding, the animals were randomly divided into 7 groups according to body weight: normal control group, model control group A769662 (30 mg/kg) administration group, metformin (260 mg/kg) administration group, IMM-H007 low, medium, and high administration groups (50, 100, 200 mg/kg), 8 in each group, and were given a high-fat diet (78.6% basal diet, 10% lard, 1.0% cholesterol, 10% egg yolk powder, and 0.4% bile salt), […] body weight, and were continuously administered and fed for 8 weeks to establish an atherosclerosis model.
(2) Effect of IMM-H007 on Serum Inflammatory Factors TNF-α and VCAM-1 in ApoE−/− Mice
Operated according to kit instructions

ApoE−/− mice [2] = assay: Plaque area in ApoE−/− mice (oil red O staining of aorta and aortic root); details: for plaque area, Overall length of aorta: in % (unit assumed)
Method: After 1 week of adaptive feeding, the animals were randomly divided into 7 groups according to body weight: normal control group, model control group A769662 (30 mg/kg) administration group, metformin (260 mg/kg) administration group, IMM-H007 low, medium, and high administration groups (50, 100, 200 mg/kg), 8 in each group, and were given a high-fat diet (78.6% basal diet, 10% lard, 1.0% cholesterol, 10% egg yolk powder, and 0.4% bile salt), and simultaneously administered intragastrically at a dose of 0.1 ml/10 g body weight, […] model.
The aortic root was stained with oil red O and the overall length of the aorta was stained with oil red O. The pathological images were analyzed by Photoshop, Image 1, and Image-Pro Plus softwares. The pathological grading data were statistically analyzed using Chi-square test.

Q: `N#Cc1c(O)c2c(-c3ccc(-c4ccccc4O)cc3)csc2[nH]c1=O` [A769662] was tested. Which Leukocyte movement rate (C57BL/6J mice; 30 mg/kg, ip) did it give?
A: The Leukocyte movement rate was 24.9 ± 3.8 µm/s.

Q: And the “Number of leukocyte adhesion” value (C57BL/6J mice; 30 mg/kg, ip)?
A: Its value is 3.5 ± 1.8 number/200 micron.

Q: And the Leukocyte movement rate (ApoE−/− mice [1]; 30 mg/kg, ip)?
A: Its Leukocyte movement rate is 28.7 ± 7 µm/s.

Q: What about the “Number of leukocyte adhesion” value (ApoE−/− mice [1]; 30 mg/kg, ip) of the same compound?
A: The value was 13.7 ± 4.9 number/200 micron.

Q: And the “serum VCAM-1” value (VCAM-1; 30 mg/kg, ip)?
A: Its value is 233.1 ± 18.3.

Q: And the “serum TNF-α” value (TNF-α; 30 mg/kg, ip)?
A: Its value is 247.3 ± 49.7.

Q: What about the “plaque area, Frozen section of root of aorta %” value (ApoE−/− mice [2]; 30 mg/kg, ip) of the same compound?
A: The value was 3.02 ± 0.89 %.

Q: What about the “plaque area, Overall length of aorta” value (ApoE−/− mice [2]; 30 mg/kg, ip) of the same compound?
A: The value was 2.61 ± 1.80.

Q: Which results are given for `CN(C)C(=N)N=C(N)N` [Metformin, metformin]?
A: Leukocyte movement rate (C57BL/6J mice; 260 mg/kg intragastric): 21.5 µm/s; Number of leukocyte adhesion (C57BL/6J mice; 260 mg/kg intragastric): 5.1 ± 2.2 number/200 micron; Leukocyte movement rate (ApoE−/− mice [1]; 260 mg/kg): 21.4 µm/s; Number of leukocyte adhesion (ApoE−/− mice [1]; 260 mg/kg): 16.3 ± 6.8 number/200 micron; serum VCAM-1 (VCAM-1; 260 mg/kg): 234.9 ± 16.7; serum TNF-α (TNF-α; 260 mg/kg): 229.1 ± 35.2; plaque area, Frozen section of root of aorta % (ApoE−/− mice [2]; 260 mg/kg): 3.73 ± 1.15 %; plaque area, Overall length of aorta (ApoE−/− mice [2]; 260 mg/kg): 3.13 ± 1.76

Q: How did the Leukocyte movement rate (C57BL/6J mice; 10 mg/kg intragastric) turn out when `CC(C)c1c(C(=O)Nc2ccccc2)c(-c2ccccc2)c(-c2ccc(F)cc2)n1CC[C@@H](O)C[C@@H](O)CC(=O)O` [Atorvastatin, atorvastatin] was run?
A: Its Leukocyte movement rate is 20.6 µm/s.

Q: And the Number of leukocyte adhesion (C57BL/6J mice; 10 mg/kg intragastric)?
A: The Number of leukocyte adhesion was 5.3 number/200 µm.
